# Read-outs that look alike come from different tables or passages of the source.
# Columns and labels:
# Aspergillus fumigatus = assay: Antifungal broth microdilution MIC (50% growth inhibition); type: cell-based; settings: Aspergillus fumigatus
# Procedure, shortened: (§1)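 MICs came from CLSI broth microdilution against clinical isolates, scored as 50% inhibition at 35 °C after 24 h (Candida) or 48 h (Cryptococcus). MFC is the lowest concentration cutting growth by 99.9% on YPD agar.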
# Candida parapsilosis = assay: as above; type: cell-based; settings: Lodderomyces parapsilosis, read-out: MIC
# Procedure, shortened: as §1
# [1] = tested on: E. coli BW25113 (wild-type); assay: Broth microdilution MIC, initial antibacterial screening; type: cell-based, Escherichia coli; settings: Escherichia coli, read-out: MIC
# Procedure, shortened: (§2)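 Broth microdilution per CLSI with ~5 × 10^5 CFU/mL inoculum and serially diluted compounds. S. aureus and E. coli were tested in CAMHB, aerobic, 37 °C, 18–20 h; C. difficile in supplemented brain heart infusion broth (yeast extract, hemin, vitamin K), anaerobic, 37 °C, 48 h. MIC read as visible growth.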
# [2] = tested on: C. difficile ATCC BAA1870; assay: Broth microdilution MIC, initial antibacterial screening (anaerobic); type: cell-based, Clostridioides difficile; settings: Clostridioides difficile, ATCCBAA1870, read-out: MIC
# Procedure, shortened: as §2
# Candida auris [3] = assay: Checkerboard assay of compound 17 with standard antifungals; type: cell-based; settings: for MIC: Candidozyma auris, checkerboard, agent alone
# Experimental: To evaluate the interactions between bisphenylthiazoles and the standard antifungal agents (fluconazole, amphotericin B, 5-fluorocytosine and caspofungin) against 2 C. auris clinical isolates, a standard checkerboard assay was utilized as described in previous studies. The fractional inhibitory concentration index (FICI) was calculated for each interaction. Interactions where the FICI was ≤0.5 were categorized as synergistic (SYN). FICI values of >0.5–1.25 were categorized as additive (ADD). FICI values of >1.25–4 were categorized as indifferent, and FICI values of > 4 were categorized as antagonistic. The experiment was repeated three independent times.
# Candida tropicalis = assay: Antifungal broth microdilution MIC (50% growth inhibition) and MFC; type: cell-based; settings: Candida tropicalis, ATCC1369, C. tropicalis ATCC 1369
# Procedure, shortened: (§3)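 CLSI broth microdilution, clinical isolates, 128–0.06 μg/mL serial dilutions, triplicates. MFC: no-growth wells plated on YPD agar, 37 °C 24 h, 99.9% kill. Three independent repeats.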
# Candida albicans = assay: as above; type: cell-based; settings: Candida albicans; for MIC: read-out: MIC
# Procedure, shortened: as §1
# Candida krusei = assay: as above; type: cell-based; settings: Pichia kudriavzevii; for MIC: read-out: MIC
# Procedure, shortened: as §3
# Candida glabrata = assay: as above; type: cell-based; settings: Nakaseomyces glabratus; for MIC: read-out: MIC
# Procedure, shortened: as §3
# Candida auris [4] = assay: as above; type: cell-based; settings: for MIC: read-out: MIC
# Procedure, shortened: as §1
# MRSA USA300 = assay: Broth microdilution MIC, initial antibacterial screening; type: cell-based, S. aureus; settings: Staphylococcus aureus; MRSA USA300; read-out: MIC
# Procedure, shortened: as §2
# [5] = tested on: human colorectal cells (Caco-2); assay: In vitro cytotoxicity, MTS assay; settings: human, 24 h
# Experimental: (§4) Fig 2 In vitro cytotoxicity assay of bisphenylthiazole compounds 7, 16 and 17 (tested in triplicates at 32, 64 and 128 μg/mL) against: A) human colorectal cells (Caco-2), and B) monkey kidney epithelial cells (Vero) after 24-hours exposure time, using the MTS 3-(4,5-dimethylthiazol-2-yl)-5-(3-carboxymethoxyphenyl)-2-(4-sulfophenyl)-2H-tetrazolium) assay. The data represent the percentage of viable Caco-2 or Vero cells measured as the average absorbance relative to DMSO after exposure to the tested compounds. Dimethyl sulfoxide (DMSO) was used as a negative control. Error bars represent the standard deviation values.
# (§5) To explore the tolerability of bisphenylthiazoles, their cytotoxicity profile was assessed in human colorectal adenocarcinoma (Caco-2) and monkey kidney epithelial cells (Vero) as described earlier. Briefly, compounds were incubated with the cells for 24 hours. Then, cells were incubated with MTS reagent for 3 hours before measuring the absorbance values (OD490). The experiment was repeated in two independent times.
# [6] = tested on: monkey kidney epithelial cells (Vero); assay: In vitro cytotoxicity, MTS assay
# Experimental: as §4, §5
# [7] = ATCC10231, C. albicans ATCC 10231
# [8] = ATCC66032, C. glabrata ATCC 66032
structure (smiles),measurement,setting,value
"Cc1nc(-c2ccc(-c3ccccc3)cc2)sc1-c1nnc(N[C@@H]2CCCC[C@@H]2N)o1 (relative stereo) [Compound 17, cis-N-{5-[2-((1,1’-Biphenyl)-4-yl)-4-methylthiazol-5-yl]-1,3,4-oxadiazol-2-yl}cyclo-hexane-1,2-diamine]",MIC,"Aspergillus fumigatus; A. fumigatus NR 35303, read-out: MIC",4 µg/mL
same,MIC,"Aspergillus fumigatus; A. fumigatus NR 35304, read-out: MIC",4 µg/mL
same,MIC,"Aspergillus fumigatus; tested A. fumigatus isolates (Table 5), read-out: MIC against Aspergillus fumigatus",4 µg/mL
same,MIC,"Candida parapsilosis; ATCC22019, C. parapsilosis ATCC 22019",1 µg/mL
same,MIC,Candida parapsilosis; C. parapsilosis CAB 502638,1 µg/mL
same,MIC,[1],> 64 µg/mL
same,MIC,[2],64 µg/mL
same,"MIC Combined, 17","Candida auris [3]; Candida auris 381, compound 17 in combination with 5-Fluorocytosine",0.25 µg/mL
same,"MIC Combined, 17","Candida auris [3]; Candida auris 381, compound 17 in combination with Amphotericin B",0.25 µg/mL
same,"MIC Combined, 17","Candida auris [3]; Candida auris 381, compound 17 in combination with Caspofungin",0.25 µg/mL
same,"MIC Combined, 17","Candida auris [3]; Candida auris 381, compound 17 in combination with Fluconazole",0.25 µg/mL
same,"MIC Combined, 17","Candida auris [3]; Candida auris 385, compound 17 in combination with 5-Fluorocytosine",0.25 µg/mL
same,"MIC Combined, 17","Candida auris [3]; Candida auris 385, compound 17 in combination with Amphotericin B",0.25 µg/mL
same,"MIC Combined, 17","Candida auris [3]; Candida auris 385, compound 17 in combination with Caspofungin",0.25 µg/mL
same,"MIC Combined, 17","Candida auris [3]; Candida auris 385, compound 17 in combination with Fluconazole",2 µg/mL
same,MIC,Candida auris [3]; Candida auris 381 (azole-sensitive),1 µg/mL
same,MIC,Candida auris [3]; Candida auris 385 (azole-resistant),2 µg/mL
same,relationship when combined with antifungals,"Candida auris [3]; combined with either fluconazole, 5-fluorocytosine or caspofungin, two tested C. auris isolates",additive
same,MFC,Candida tropicalis,> 64 µg/mL
same,MIC,Candida tropicalis; read-out: MIC,4 µg/mL
same,MFC,Candida albicans; [7],> 64 µg/mL
same,MIC,Candida albicans; [7],4 µg/mL
same,MIC,Candida albicans; C. albicans NR-29448 (fluconazole-resistant),2 µg/mL
same,MIC,Candida albicans; C. albicans SS5314 (wild-type),1 µg/mL
same,MFC,Candida albicans; C. albicans NR-29448,> 64 µg/mL
same,MIC,"Candida krusei; ATCC34135, C. krusei ATCC 34135",1 µg/mL
same,MFC,Candida krusei; C. krusei CAB 396420,> 64 µg/mL
same,MIC,Candida krusei; C. krusei CAB 396420,1 µg/mL
same,MFC,Candida glabrata; [8],> 64 µg/mL
same,MIC,Candida glabrata; [8],0.5 µg/mL
same,MFC,Candida glabrata; C. glabrata ATCC MYA-2950,> 64 µg/mL
same,MIC,Candida glabrata; C. glabrata ATCC MYA-2950,0.5 µg/mL
same,MFC,Candida auris [4]; Candida auris 390,>64 µg/mL
same,MIC,"Candida auris [4]; Candidozyma auris, C. auris 381",1 µg/mL
same,MIC,"Candida auris [4]; Candidozyma auris, C. auris 382",2 µg/mL
same,MIC,"Candida auris [4]; Candidozyma auris, C. auris 383",1 µg/mL
same,MIC,"Candida auris [4]; Candidozyma auris, C. auris 384",1 µg/mL
same,MIC,"Candida auris [4]; Candidozyma auris, C. auris 385",2 µg/mL
same,MIC,"Candida auris [4]; Candidozyma auris, C. auris 386",1 µg/mL
same,MIC,"Candida auris [4]; Candidozyma auris, C. auris 387",2 µg/mL
same,MIC,"Candida auris [4]; Candidozyma auris, C. auris 388",1 µg/mL
same,MIC,"Candida auris [4]; Candidozyma auris, C. auris 389",2 µg/mL
same,MIC,"Candida auris [4]; Candidozyma auris, C. auris 390",1 µg/mL
same,MFC,"Candida auris [4]; Candidozyma auris, Candida auris 389, read-out: MFC",> 64 µg/mL
same,MIC,MRSA USA300,> 64 µg/mL
same,melting point,,145 to 146 °C
same,concentration up to which non-toxic,[5],≤ 64 µg/mL
same,concentration up to which non-toxic,"[6]; Vero, 24 h exposure, MTS",≤ 64 µg/mL
same,times more tolerable than amphotericin B,[6]; relative to amphotericin B,16 times
